Laboratory results from a melting point compilation (Tetko et al.).

| Structure (SMILES) | melting point [°C] |
| --- | --- |
| COc1ccc(C=C2SC(=NN=CC(C)C)NC2=O)cc1 | 258 to 260 |
| O=C(Cl)c1sccc1Br | 65 to 67 |
| Nc1ccc(C(=O)O)cc1O | 211 to 215 |
| O=S(=O)(n1ccnc1)C(F)(F)F | 19 to 21 |
| FC(F)(F)c1ccc(P(c2ccc(C(F)(F)F)cc2)c2ccc(C(F)(F)F)cc2)cc1 | 72 to 75 |
| c1ncncn1 | 86 |
| CC(=O)N1CCCC(C)C1 (configuration not stated) | -13.6 |
| O=C(NC(=O)c1c(F)cccc1F)Nc1cc(Cl)c(Oc2ncc(C(F)(F)F)cc2Cl)c(Cl)c1 | 223 |
| CC1=CC(=O)C=CC1=O | 69 |
| CC12CCC(C(C(Br)N(O)c3ccccc3)C1=O)C2(C)C (configuration not stated) | 121 |
| Cc1cccc(N2C(=O)C3ON=C(C(=O)c4ccco4)C3C2=O)c1 (configuration not stated) | 129 |
| O=C(O)Cc1ccc(Oc2ccccc2)cc1 | 79 to 81 |
| Cc1ccccc1NC(=O)C(C)(C)C | 111 to 115 |
| Brc1ccccc1Oc1ccccc1 | < 20 |
| CCCCCCCCCCCCCCCCCC[Si](C)(C)Cl | 30 |
| O=C1NC(=S)NC(=O)C1=NNc1ccc(Br)cc1 | 268 |
| O=C(O)Cc1ccc(OCc2ccccc2)cc1 | 123 to 124 |
| Clc1ccc(-c2csc3nc4ccccc4n23)cc1 | 200 to 203 |
| COc1ccc(CCc2cc(OC)c3ccccc3n2)cc1OC | 116 |
| O=C(CBr)c1cc(-c2ccc(Cl)cc2)no1 | 157 to 158 |
| CCOC(=O)C(CCC#N)(CCC#N)C(=O)OCC | 62 |
| COc1ccc(C(=O)C2=NOC3C(=O)N(c4cc(Cl)ccc4Cl)C(=O)C23)cc1 (configuration not stated) | 147 |
| CC(=O)OOC(=O)c1ccccc1 | 37 |
| Nc1ccc(/C(=C\c2ccccc2N)C(=O)O)cc1 | 186 |
| CCCCC(CC)CC | -115 |
| Ic1cccc(OCc2ccccc2)c1 | 51 |

| Structure (SMILES) | melting point [°C] |
| --- | --- |
| Nc1ncnc2[nH]cnc12 | 360 to 365 |
| Cc1nn(C)c(C)c1N | 102 |
| CCOC(=O)Cc1cc(C(=NNc2ccccc2)C(=O)OCC)c([N+](=O)[O-])cc1[N+](=O)[O-] | 154 to 155 |
| CCC(C(N)=O)c1ccccc1 (configuration not stated) | 86 |
| N#Cc1c(Cl)cccc1Oc1ccccc1 | 61 |
| CCCCCCCCCC(=O)OC1CCC2C3CCC4=CC(=O)CCC4C3CCC12C (configuration not stated) | 118 |
| N=c1sc(C(=O)c2cccs2)nn1-c1c(Cl)cc(Cl)cc1Cl | 209 |
| COC(=O)c1ccc(Cl)nc1 | 86 |
| CSc1nc2cc(N=Cc3ccccc3Cl)ccc2[nH]1 | 229 to 231 |
| COc1cc(C)c(C=O)c(OC)c1 | 65 |
| CCOc1ccccc1F | -16.7 |
| COc1ccc(C(=O)C2=NOC3C(=O)N(c4ccc(F)cc4)C(=O)C23)cc1 (configuration not stated) | 141 |
| Cc1ccc(N2CCNCC2)cc1C | 63 |
| COc1cc(Cl)c(NC(C)=O)c(Cl)c1 | 186 to 188 |
| CN(C)CCc1c[nH]c2ccccc12 | 46 |
| C=Cc1ccccc1-c1cn[nH]c1 | 114 |
| COc1ccc(-c2cc3nc(-c4cccs4)cc(C(F)(F)F)n3n2)cc1 | 201 |
| O=C(O)c1ccccc1N=NC1SC(=S)NC1=O (configuration not stated) | 244 to 245 |
| Brc1ccc(Oc2ccc(Br)c(Br)c2Br)c(Br)c1Br | 183 |
| CC(=O)n1c(-c2ccccc2)c(O)c2ccc([N+](=O)[O-])cc21 | 179 |
| COc1ccc(-n2cncn2)cc1 | 97 |
| Cc1nc(-c2ccccc2)c(C)s1 | 28 |
| CN(C)CCc1ccc(O)cc1 | 118 |
| Brc1cccc(Oc2ccccn2)c1 | 63 to 64 |
| CC12CCC3C(CCC4CC(=NO)CCC43C)C1CCC2O (configuration not stated) | 198 to 199 |
| CC(=O)C(c1ccccc1)c1ccccc1 | 61 |

| Structure (SMILES) | melting point [°C] |
| --- | --- |
| CNC(=O)Oc1ccc2c(c1)C1(C)CCOC1N2C (configuration not stated) | 124 |
| Clc1ccc(Cc2c(N=Cc3ccccc3Cl)n[nH]c2N=Cc2ccccc2Cl)cc1 | 199 to 201 |
| Nn1nnc2ccccc21 | 81 to 85 |
| COC(=O)c1ccc(N2CCCC2)nc1 | 119 to 121 |
| O=C1OC(c2ccc(Cl)cc2)=NC1=Cc1ccccc1 | 181 to 182 |
| CC1=C(C(=O)OC(C)C)C(c2ccccc2)NC(=S)N1 (configuration not stated) | 177 |
| Cc1ccccc1CP(=O)(O)O | 195 to 196 |
| COC1C(O)C(C)OC(OC2CCC3(C=O)C(CCC4C3CCC3(C)C(C5=CC(=O)OC5)CCC43O)C2)C1O (configuration not stated) | 162 |
| CC(C)(Oc1ccc(C#N)cc1)C(=O)O | 117 to 120 |
| C=C=O | -151 |
| Clc1ccc2nc(N3CCCNCC3)sc2c1 | 103 to 105 |
| CC1=NN(c2ccccc2)C(=O)/C1=C\c1ccccc1O | 153 to 154 |
| NNc1ncnc2scc(-c3ccccc3)c12 | 150 to 152 |
| N#CC(C#N)=c1c(F)c(F)c(=C(C#N)C#N)c(F)c1F | 291 |
| O=C(Nc1ccccc1)OC1C=CC=CCC1OC(=O)Nc1ccccc1 (configuration not stated) | 179 to 180 |
| Cc1c(C)c2c(c3c1C(=O)C3)CC2=O | 207 |
| Ic1ccc(N2CCOCC2)cc1 | 131 to 132 |
| Cc1ccc(-c2csc3nc(C(F)(F)F)cc(=O)n23)cc1 | 186 |
| CCOC(=O)c1sc2nccnc2c1N | 120 |
| O=[N+]([O-])c1cccc2cccc(Cl)c12 | 95.8 |
| ClCc1nnc(C2CC2)s1 | 80 to 84 |
| OCC1OC(Oc2ccc3cc(Br)ccc3c2)C(O)C(O)C1O (configuration not stated) | 218 to 220 |
| O=C1C(C(O)c2c(Cl)cccc2Cl)C(C(F)(F)F)=NN1c1ccccc1 (configuration not stated) | 196 |
| O=C(Cc1ccccc1)c1ccc(Br)cc1 | 111 |
| CCCCCCCCCCCCCCCCN | 46.8 |
| O=C1c2ccccc2C(=O)C1(Cl)c1ccccc1 | 115 to 116 |

| Structure (SMILES) | melting point [°C] |
| --- | --- |
| OCc1csc(-c2ccccc2)n1 | 65 to 69 |
| CC12CCC(=O)CC1CCC1C2CCC2(C)C(O)(C(=O)CO)CCC12O (configuration not stated) | 218 |
| COc1cc(Br)c(C=CC(=O)O)cc1OC | 253 to 259 |
| COc1ccc(COC(=O)NN)cc1 | 76 |
| O=C(O)c1nccnc1C(=O)O | 188 |
| OCc1cc(OCc2ccccc2)cc(OCc2ccccc2)c1 | 78 to 82 |
| CCOC(=O)c1c(SC)nn(C(=O)c2cccc(C)c2)c1C | 115 |
| CC(=O)OC(=CC=C(OC(C)=O)c1ccccc1)c1ccccc1 | 174 to 176 |
| ON=Cc1ccc(Cl)cc1 | 100 to 102 |
| O=S(=O)(Cl)Cc1ccccc1Br | 78 to 80 |
| CCC(C)(C)C(C)(C)O | -1 |
| CC(=O)OCC(=O)C1(O)CCC2C3CCC4=CC(=O)CCC4(C)C3C(=O)CC21C (configuration not stated) | 222 |
| COc1ccc(-c2nnc3n2NC(c2ccc(N(C)C)cc2)S3)cc1 (configuration not stated) | 167 |
| O=C(Oc1ccc(Cl)cc1)c1c(Cl)c(Cl)c(C(=O)Oc2ccc(Cl)cc2)c(Cl)c1Cl | 244 |
| OCCC(F)(F)C(F)(F)C(F)(F)C(F)(F)C(F)(F)C(F)(F)F | -35 |
| Nc1c(Br)cc(C2CCCCC2)cc1Br | 37 to 38 |
| O=C=Nc1ccc(-c2ccco2)cc1 | 66 |
| Cc1cc(Br)ccc1N | 59.5 |
| CCCCOCCOCCCC | -69.1 |
| CN(C)c1nncc(-c2cnnc(N(C)C)n2)n1 | 224 |
| O=C(O)/C=C/c1c(F)cccc1F | 124 to 125 |
| CCOC(=O)c1oc(C(=O)OCC)c(O)c1O | 178 to 180 |
| COc1ccc(OC)c(N=C=S)c1 | 36 |
| COc1ccc(N=C=S)c([N+](=O)[O-])c1 | 111 to 113 |
| FC(F)(F)C1(F)C(F)(F)C(F)(F)C(F)(F)C(F)(F)C1(F)C(F)(F)F (configuration not stated) | -56 |
| Cc1c(O)cc2c(c1C)OC(C)(CCCC(C)CCCC(C)CCCC(C)C)CC2 (configuration not stated) | -3 |

| Structure (SMILES) | melting point [°C] |
| --- | --- |
| CC(=O)c1ccc(NC(=O)C(C(F)(F)F)C(F)(F)F)cc1 | 174 |
| C=CC(=O)OCC(C)C | -61 |
| O=C(O)c1c(O)ccc(F)c1F | 183 |
| CCOC(=O)c1c(NC(=S)Nc2ccc(Cl)cc2)sc2c1CCN(Cc1ccccc1)C2 | 169 to 172 |
| CC(=O)Nc1ccc(O)cc1 | 169 |
| Cc1ccc(-c2cc(-c3ccccn3)nc(-c3ccccn3)c2)cc1 | 169 |
| Nc1c(Cl)cc([N+](=O)[O-])cc1Br | 175 |
| CCCCC(=O)OCN1C(=O)NC(c2ccccc2)(c2ccccc2)C1=O | 91 |
| Brc1ccc(Br)nn1 | 116 to 117 |
| O=[N+]([O-])c1c(F)ccc(Cl)c1F | 47 |
| OCc1cc2cccnc2s1 | 47 to 49 |
| CC1(c2ccccc2)CCOCO1 (configuration not stated) | 37.5 |
| CC(C)(C)S(=O)(=O)c1cnc(N2CCOCC2)nc1N | 196 to 198 |
| CCOc1cc(C)ccc1O | 30.5 |
| COc1ccc(C=C2SC(=S)N(CN3CCCCC3)C2=O)cc1 | 222 to 223 |
| C=C1CC2C(CCC3(C)C(=O)CCC23)C2(C)C=CC(=O)C=C12 (configuration not stated) | 190 |
| COC(=O)c1cscc1Sc1ccc(Cl)cc1 | 77 to 79 |
| COC(=O)COC(=O)c1ccc2c(O)c(C(=O)OC)oc2c1 | 130 |
| NC(=O)NNC(N)=O | 247 to 250 |
| COc1ccc(C(=O)Cl)cc1OC | 71 |
| CCOC(=O)c1ccc2c(c1)nnn2C | 105 to 108 |
| Cc1cccc(/N=N/c2c(N)nn3c(C(F)(F)F)cc(C)nc23)c1 | 209 |
| CCCCCCCCCCCC(=O)c1ccccc1 | 47 |
